In PubChem BioAssay (NCI):
“And” between values parts separate entries of the source, which are not always exact repeats. Equal values may be shown once.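 Results reflect a 48-hour exposure of cells in 96-well plates to compound at five concentrations. At the GI50, growth is halved. Definition used: TGI = concentration required for complete inhibition of growth.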

Columns and labels:
Test in all cases: growth of human tumour cells (NCI), 48 h
[1] = tested on: UACC-257 melanoma
[2] = tested on: T-47D breast
[3] = tested on: SR leukemia
[4] = tested on: SK-MEL-28 melanoma
[5] = tested on: A549 NSCLC
[6] = tested on: HT29 colon
[7] = tested on: OVCAR-3 ovarian
[8] = tested on: NCI/ADR-RES ovarian
[9] = tested on: HCT-116 colon
[10] = tested on: SF-539 CNS

Structure (SMILES) | GI50 [1] | TGI [1] | GI50 [2] | TGI [2] | GI50 [3] | TGI [3] [µM] | GI50 [4] | TGI [4] | GI50 [5] | TGI [5] [µM] | GI50 [6] | TGI [6] | GI50 [7] | TGI [7] | GI50 [8] | TGI [8] | GI50 [9] | TGI [9] | GI50 [10] | TGI [10]
CC(/C=N/N=C(N)N)=N\N=C(N)N | > 73.7 µM | 521 µM | 5.02 µM | 31 µM and 23.4 µM | 1.95 µM | 333 | > 80.2 µM | 363 µM | > 52.4 µM | 1780 | 18.6 µM and 17.1 µM | > 58 µM and 1620 µM | 11.1 µM | 130 µM | 20.8 µM | 61.1 µM and 126 µM | 52.1 µM | 1370 µM | 21.8 µM | 103 µM
COc1cc(Cn2c(-c3ccccc3)cc3c2-c2oncc2CC3)cc(OC)c1 | – | > 100 µM | > 100 µM | > 100 µM | 0.308 µM | > 40.7 | 0.416 µM | > 100 µM | 0.404 µM | > 100 | 0.315 µM | 25.9 µM | 0.204 µM | 0.477 µM | 0.208 µM | – | 0.354 µM | > 46.8 µM | 0.297 µM | > 49 µM
N#C/C(=C\c1ccc2[nH]ccc2c1)C(=O)c1ccc(O)c(O)c1 | – | > 100 µM | – | > 100 µM | – | > 100 | – | > 100 µM | – | > 100 | – | > 100 µM | – | 79.3 µM | – | > 100 µM | – | > 100 µM | – | > 100 µM
NS(=O)(=O)c1ccc(NC(=O)c2cccc(NC3=C(Cl)C(=O)N(Cc4ccccc4)C3=O)c2)cc1 | 14.7 µM | 29.4 µM | 33.7 µM | > 100 µM | 0.323 µM | 1.73 | 20 µM | 42.9 µM | 21.2 µM | 52.3 | 33.3 µM | > 100 µM | 12.4 µM | 27 µM | – | – | 13.9 µM | 43.4 µM | 11.3 µM | 26.7 µM
CN(C(=O)CNC(=O)/C=C/c1cccc(Cl)c1)C1CCS(=O)(=O)CC1 | > 100 µM | > 100 µM | 7.36 µM | > 100 µM | > 100 µM | > 100 | 59.3 µM | > 100 µM | > 100 µM | > 100 | 0.889 µM | > 100 µM | 1.21 µM | > 100 µM | > 100 µM | > 100 µM | 1.52 µM | > 100 µM | 7.28 µM | > 100 µM
Nc1nc(N)c2c(n1)NC(c1sc(Cl)nc1Cl)CC(c1ccc3c(c1)OCO3)=N2 (centres undefined) | 14.6 µM | 41.1 µM | 5.36 µM | 64.1 µM | 1.9 µM | 16.6 | 7.63 µM | 29.2 µM | 6.47 µM | > 100 | – | – | 3.94 µM | 17.4 µM | 3.55 µM | 25.3 µM | 3.42 µM | 16.2 µM | 2.22 µM | 8.24 µM
Oc1ccc(Cl)cc1/C=N\NC(=S)N/N=C/c1cc(Cl)ccc1O | 2.13 µM | 7.49 µM | 2.73 µM | 73.4 µM | 1.22 µM | 40.9 | 4.58 µM | > 100 µM | 3.75 µM | > 100 | 5.13 µM | 54.4 µM | 1.87 µM | 11.7 µM | 2.78 µM | 32.8 µM | 1.42 µM | 18.5 µM | 2.8 µM | 90.8 µM
CC1=C(N2CC2)C(=O)c2ccccc2C1=O | – | 1.94 µM | – | 28.7 µM | – | 0.279 | – | 4.33 µM | – | 2.17 | – | 3.07 µM | – | 2.89 µM | – | 3.14 µM | – | 12 µM | – | 5.91 µM
Nc1ccn(C2OC(C(OC3OC(CO)C(O)C(N)C3O)C(O)C(O)C(O)C(O)CO)C(N)C(O)C2O)c(=O)n1 (centres undefined) | – | > 100 µM | – | > 100 µM | – | > 100 | – | > 100 µM | – | > 100 | – | > 100 µM | – | 86.6 µM | – | > 100 µM | – | > 100 µM | – | 78.6 µM
O=C(NOCCO)c1cc(CN2OCCCC2=O)c(F)c(F)c1Nc1ccc(I)cc1F | < 0.01 µM and 0.00204 µM | 0.0393 µM and < 0.0128 µM | 29.4 µM and > 10 µM | > 100 µM | 19.9 µM and > 10 µM | > 100 | < 0.01 µM and 0.00249 µM | 0.0712 µM and 0.124 µM | 0.464 µM and 0.156 µM | > 86.2 | < 0.01 µM and 0.0029 µM | > 42.7 µM | 28.9 µM and > 10 µM | 98.7 µM and > 10 µM | 19.4 µM and > 10 µM | > 100 µM | 0.0171 µM and 0.0207 µM | 28.6 µM and > 10 µM | 8.61 µM and > 10 µM | 66 µM and > 10 µM
COc1ccc(C(=O)c2cc3c(N)c(C(=O)Nc4cccc(OC)c4)sc3nc2C)cc1 | > 100 µM | > 100 µM | 4.7 µM | > 100 µM | 0.203 µM | – | > 100 µM | > 100 µM | 0.753 µM | > 100 | 0.472 µM | > 100 µM | – | – | 0.515 µM | > 100 µM | 0.368 µM | > 100 µM | 0.372 µM | 2.59 µM
Nc1c(C(=O)Nc2cccc3ccccc23)sc2nc3c(cc12)C(=O)CCC3 | 0.183 µM | > 65.8 µM | 0.759 µM | > 100 µM | 0.38 µM | > 100 | 0.341 µM | 53.4 µM | 0.172 µM | > 46.1 | 0.265 µM | – | 0.229 µM | 0.696 µM | 0.225 µM | – | 0.327 µM | > 100 µM | 0.152 µM | 0.456 µM
Cc1cc2nc3c4ccc(Br)cc4n(CCN(C)C)c3nc2cc1C | 1.88 µM | 3.91 µM | 2.05 µM | 6.6 µM | 0.423 µM | 10 | 1.69 µM | 3.12 µM | 1.16 µM | 10.3 | 0.664 µM | 2.89 µM | 2.04 µM | 6.96 µM | 0.609 µM | 4.69 µM | 0.451 µM | 2.14 µM | 1.6 µM | 3.17 µM
